Patent US20250353873A1, “COMPOUNDS AND METHODS FOR MODULATING APOE EXPRESSION” (Ionis Pharmaceuticals, Inc., priority 2024, published 2025)
Strand notation (5' to 3'): a small letter for the sugar, then the base; units joined by * are phosphorothioate-linked, units joined directly phosphodiester-linked; [ ] holds rarer units or linkages, { } end groups; capitals alone tell only the bases. [PN] = cyclic guanidine phosphoramidate internucleoside linkage; [ms] = mesyl phosphoramidate linkage; e = 2'-O-(2-methoxyethyl) (MOE); k = constrained ethyl (cEt); [5mC] = 5-methylcytosine; d = 2'-deoxy (DNA)

Key:
human APOE RNA [1] = experiment: Duration of action study in APOE C57BL/6NTac-Apoeem7250 knock-in mice (Example 16); assay type: in vivo; details: 300 μg ICV
Description: Modified oligonucleotides described above were tested in the APOE C57BL/6NTac-Apoeem7250 knock-in mouse model described above.
APOE C57BL/6NTac-Apoeem7250 knock-in mice were divided into groups of 2-4 mice each. Each mouse received a single intracerebroventricular (ICV) bolus of 300 μg of modified oligonucleotide. A group of 2-4 mice received a single ICV bolus with PBS as a negative control.
Mice were sacrificed at various timepoints as indicated in the table below and RNA was extracted from cortical brain tissue and spinal cord for quantitative real-time RT-PCR analysis of RNA expression of APOE using primer probe set RTS3073 (described herein above). APOE RNA levels were normalized to mouse Ppia. Mouse Ppia was amplified using primer probe set m_cyclo24 (described herein above). Results are presented as percent human APOE RNA relative to the amount of human APOE RNA in PBS treated animals, (% control). Each experiment is identified in separate tables below.

human APOE RNA [2] = experiment: Dose-dependent inhibition of human APOE RNA in HepG2 cells, electroporation, 50,000 cells per well, RT-PCR normalized to GAPDH (Example 4, Tables 8-10); assay type: cell-based; details: HepG2 cells, electroporation, Table 8; for APOE RNA (% UTC) 5 nM / APOE RNA (% UTC) 13 nM / APOE RNA (% UTC) 33 nM / APOE RNA (% UTC) 82 nM / APOE RNA (% UTC) 205 nM / APOE RNA (% UTC) 512 nM / IC50: 24-hour treatment; for APOE RNA (% UTC) 1,280 nM: 24-hour treatment, 1,280 nM; for APOE RNA (% UTC) 3,200 nM: 24-hour treatment, 3,200 nM; for APOE RNA (% UTC) 8,000 nM: 24-hour treatment, 8,000 nM; for APOE RNA (% UTC) 20,000 nM: 24-hour treatment, 20,000 nM; for IC50: reduction of human APOE RNA
Method in brief: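 HepG2 cells, 50,000 per well, electroporated with modified oligonucleotide at various concentrations. APOE RNA quantified by RT-PCR with human primer probe set RTS3073, normalized to GAPDH. Values are percent APOE RNA relative to untreated control cells.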

human APOE RNA [3] = experiment: Activity in APOE C57BL/6NTac-Apoeem7250 knock-in mice, single ICV bolus, 4 weeks (Example 10); assay type: in vivo; details: single ICV bolus 300 μg, 4 weeks post treatment, normalized to mouse Ppia
Method in brief: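 Knock-in mice (2–4 per group) received one 300 μg ICV bolus of oligonucleotide or PBS. After four weeks, human APOE RNA in cortex and spinal cord measured by RT-qPCR (primer probe set RTS3073), normalized to mouse Ppia, expressed as % of PBS controls.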

human APOE RNA [4] = experiment: Activity in APOE C57BL/6NTac-Apoeem7250 knock-in mice, single ICV bolus, 8 weeks (Example 11); assay type: in vivo; details: single ICV bolus 300 μg, 8 weeks post treatment, normalized to mouse Ppia
Method in brief: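 Human APOE knock-in C57BL/6NTac mice given one ICV bolus of 300 μg oligonucleotide; PBS-dosed group as control. At 8 weeks, cortex and spinal cord RNA measured by qRT-PCR (human probe RTS3073), normalized to mouse Ppia, expressed as % of PBS control.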

human APOE RNA [5] = experiment: Activity in APOE C57BL/6NTac-Apoeem7250 knock-in mice, single ICV bolus, 16 weeks (Example 12); assay type: in vivo; details: single ICV bolus 300 μg, 16 weeks post treatment, normalized to mouse Ppia
Method in brief: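 Knock-in mice (3-4 per group) received one ICV bolus of 300 μg oligonucleotide, PBS as control. After 16 weeks, human APOE RNA in cortex and spinal cord measured by RT-qPCR, normalized to mouse Ppia, and reported as % of PBS control.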

human APOE RNA [6] = experiment: Activity in APOE C57BL/6NTac-Apoeem7250 knock-in mice, single ICV bolus, 20 weeks (Example 13); assay type: in vivo; details: single ICV bolus 300 μg, 20 weeks post treatment, normalized to mouse Ppia
Method in brief: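 Knock-in mice (n=4) given a single ICV bolus of 300 μg oligonucleotide, PBS as control. After 20 weeks, human APOE RNA in cortex and spinal cord measured by RT-qPCR, normalized to mouse Ppia, expressed as % of PBS-treated animals.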

Row | Substance | APOE RNA (% control) Cortex (human APOE RNA [1]; 14 days post-dose) [% control] | APOE RNA (% control) Cortex (human APOE RNA [1]; 112 days post-dose) [% control] | APOE RNA (% control) Spinal Cord (human APOE RNA [1]; 14 days post-dose) [% control] | APOE RNA (% control) Spinal Cord (human APOE RNA [1]; 112 days post-dose) [% control] | APOE RNA (% UTC) 5 nM (human APOE RNA [2]) [% UTC] | APOE RNA (% UTC) 13 nM (human APOE RNA [2]) [% UTC] | APOE RNA (% UTC) 33 nM (human APOE RNA [2]) [% UTC] | APOE RNA (% UTC) 82 nM (human APOE RNA [2]) [% UTC] | APOE RNA (% UTC) 205 nM (human APOE RNA [2]) [% UTC] | APOE RNA (% UTC) 512 nM (human APOE RNA [2]) [% UTC] | APOE RNA (% UTC) 1,280 nM (human APOE RNA [2]) [% UTC] | APOE RNA (% UTC) 3,200 nM (human APOE RNA [2]) [% UTC] | APOE RNA (% UTC) 8,000 nM (human APOE RNA [2]) [% UTC] | APOE RNA (% UTC) 20,000 nM (human APOE RNA [2]) [% UTC] | IC50 (human APOE RNA [2]) [nM] | APOE RNA (% control) Cortex (human APOE RNA [3]) [% control] | APOE RNA (% control) Spinal Cord (human APOE RNA [3]) [% control] | APOE RNA (% control) Cortex (human APOE RNA [4]) [% control] | APOE RNA (% control) Spinal Cord (human APOE RNA [4]) [% control] | APOE RNA (% control) Cortex (human APOE RNA [5]) [% control] | further results
1 | 1721305: 6-10-4 MOE gapmer TTGGTGAATCTTTATTAAAC, linkages s[pn][pn][pn]oossssssssss[pn]ss (eT*eT[PN]eG[PN]eG[PN]eTeGdA*dA*dT*d[5mC]*dT*dT*dT*dA*dT*dT*eA[PN]eA*eA*e[5mC]) [compound 1721305] | 52 | 81 | 37 | 40 |  |  |  |  |  |  |  |  |  |  |  |  |  |  |  |  | 
2 | 1721308: 6-10-4 MOE gapmer CTTGGTGAATCTTTATTAAA, linkages s[pn][pn][pn]oossssssszzsoss (e[5mC]*eT[PN]eT[PN]eG[PN]eGeTdG*dA*dA*dT*d[5mC]*dT*dT*dT[ms]dA[ms]dT*eTeA*eA*eA) [compound 1721308] | 48 | 85 | 45 | 42 |  |  |  |  |  |  |  |  |  |  |  |  |  |  |  |  | 
3 | 1721307: 6-10-4 MOE gapmer CTTGGTGAATCTTTATTAAA, linkages s[pn][pn][pn]oossssssssssoss (e[5mC]*eT[PN]eT[PN]eG[PN]eGeTdG*dA*dA*dT*d[5mC]*dT*dT*dT*dA*dT*eTeA*eA*eA) [compound 1721307] | 38 | 73 | 31 | 34 |  |  |  |  |  |  |  |  |  |  |  |  |  |  |  |  | 
4 | 1778115: modified oligonucleotide complementary to human APOE RNA (eA*e[5mC]eTeTkGkG*dT*dG[ms]dA[ms]dA*dT*d[5mC]*dT*dT*dT*dA[ms]eTeT*eA*eA; antisense) [compound 1778115] |  |  |  |  | 76 | 75 | 73 | 85 | 72 | 43 | 38 | 29 | 32 | 6 | 530 | 37 | 66 | 46 | 27 | 44 | APOE RNA (% control) Spinal Cord (human APOE RNA [5]): 28 % control; APOE RNA (% control) Cortex (human APOE RNA [6]): 77 % control; APOE RNA (% control) Spinal Cord (human APOE RNA [6]): 28 % control
5 | 1785604: modified oligonucleotide complementary to human APOE RNA (k[5mC]*dT[ms]dT[ms]kG*dG[ms]kT*dG[ms]dA[ms]dA*dT*d[5mC]*dT*dT*dT*dA*dT*kT*kA*dA[ms]kA; antisense) [compound 1785604] |  |  |  |  | 92 | 108 | 89 | 86 | 69 | 47 | 44 | 47 | 13 | 7 | 870 | 39 | 55 | 28 | 35 | 41 | APOE RNA (% control) Spinal Cord (human APOE RNA [5]): 27 % control; APOE RNA (% control) Cortex (human APOE RNA [6]): 55 % control; APOE RNA (% control) Spinal Cord (human APOE RNA [6]): 47 % control
